Measurements from patent publication US20160333419A1, “GENE SIGNATURES ASSOCIATED WITH SENSITIVITY TO MDM2 INHIBITORS” (DAIICHI SANKYO COMPANY, LIMITED, priority 2014, published 2016).
pIC50: −log10 of the molar value.

Experiments:
Test in all cases: OncoPanel cytotoxicity assay
Type in all cases: cell-based
HT-3 = conditions: Homo sapiens, 72 hour incubation
Outline: (§1)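 Cells grown in RPMI 1640 with 10% FBS (or a special medium) at 37° C, 5% CO2 were treated 24 hours after seeding for 72 hours with 10 concentrations (3.16-fold dilutions, 0.1% DMSO final). Nuclei were dye-stained and imaged; IC50 was fit from percent of control relative cell count.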

CFPAC-1 = conditions: Homo sapiens, 72 hour incubation
Outline: as §1

LNCaP = conditions: Homo sapiens, 72 hour incubation
Outline: as §1

Daudi = conditions: Homo sapiens, 72 hour incubation
Outline: as §1

C-4 I = conditions: Homo sapiens, 72 hour incubation
Outline: as §1

Calu6 = conditions: Homo sapiens, Calu-6, 72 hour incubation
Outline: as §1

T98G = conditions: Homo sapiens, 72 hour incubation
Outline: as §1

Colo 320DM = conditions: Homo sapiens, 72 hour incubation
Outline: as §1

EM-2 = conditions: Homo sapiens, 72 hour incubation
Outline: as §1

NCI-H460 = conditions: Homo sapiens, 72 hour incubation
Outline: as §1

MCF7 = conditions: Homo sapiens, 72 hour incubation
Outline: as §1

ACHN = conditions: Homo sapiens, 72 hour incubation
Outline: as §1

HCT-15 = conditions: Homo sapiens, 72 hour incubation
Outline: as §1

NALM-6 = conditions: Homo sapiens, 72 hour incubation
Outline: as §1

CAMA-1 = conditions: Homo sapiens, 72 hour incubation
Outline: as §1

MV-4-11 = conditions: Homo sapiens, MV4-11, 72 hour incubation
Outline: as §1

HuP-T4 = conditions: Homo sapiens, 72 hour incubation
Outline: as §1

HEL-92-1-7 = conditions: Homo sapiens, HEL 92.1.7, 72 hour incubation
Outline: as §1

BHT-101 = conditions: Homo sapiens, 72 hour incubation
Outline: as §1

AsPC-1 = conditions: Homo sapiens, ASPC1, 72 hour incubation
Outline: as §1

SR = conditions: Homo sapiens, 72 hour incubation
Outline: as §1

SW684 = conditions: Homo sapiens, 72 hour incubation
Outline: as §1

D283 Med = conditions: Homo sapiens, 72 hour incubation
Outline: as §1

HT-1080 = conditions: Homo sapiens, 72 hour incubation
Outline: as §1

SW1353 = conditions: Homo sapiens, 72 hour incubation
Outline: as §1

SNU-16 = conditions: Homo sapiens, 72 hour incubation
Outline: as §1

HT = conditions: Homo sapiens, 72 hour incubation
Outline: as §1

SK-MEL-28 = conditions: Homo sapiens, 72 hour incubation
Outline: as §1

SCC-9 = conditions: Homo sapiens, 72 hour incubation
Outline: as §1

HT-1197 = conditions: Homo sapiens, HT1197, 72 hour incubation
Outline: as §1

BT20 = conditions: Homo sapiens, BT-20, 72 hour incubation
Outline: as §1

A427 = conditions: Homo sapiens, A-427, 72 hour incubation
Outline: as §1

ARH-77 = conditions: Homo sapiens, 72 hour incubation
Outline: as §1

SK-N-AS = conditions: Homo sapiens, 72 hour incubation
Outline: as §1

RKO-AS45-1 = conditions: Homo sapiens, RKOAS451, 72 hour incubation
Outline: as §1

MOLT-3 = conditions: Homo sapiens, 72 hour incubation
Outline: as §1

SW954 = conditions: Homo sapiens, SW 954, 72 hour incubation
Outline: as §1

SW900 = conditions: Homo sapiens, 72 hour incubation
Outline: as §1

PC-3 = conditions: Homo sapiens, 72 hour incubation
Outline: as §1

Compound | pIC50 (HT-3) | pIC50 (CFPAC-1) | pIC50 (LNCaP) | pIC50 (Daudi) | pIC50 (C-4 I) | pIC50 (Calu6) | pIC50 (T98G) | pIC50 (Colo 320DM) | pIC50 (EM-2) | pIC50 (NCI-H460) | pIC50 (MCF7) | pIC50 (ACHN) | pIC50 (HCT-15) | pIC50 (NALM-6) | pIC50 (CAMA-1) | pIC50 (MV-4-11) | pIC50 (HuP-T4) | pIC50 (HEL-92-1-7) | pIC50 (BHT-101) | pIC50 (AsPC-1) | other results
CC1(C)CCC2(CC1)N[C@@H](C(=O)N[C@@H]1CC[C@@H](C(N)=O)OC1)[C@H](c1ccnc(Cl)c1F)[C@]21C(=O)Nc2cc(Cl)ccc21 [Compound B, (3′R,4′S,5′R)—N-[(3R,6S)-6-carbamoyltetrahydro-2H-pyran-3-yl]-6″-chloro-4′-(2-chloro-3-fluoropyridin-4-yl)-4,4-dimethyl-2″-oxo-1″,2″-dihydrodispiro[cyclohexane-1,2′-pyrrolidine-3′,3″-indole]-5′-carboxamide] | < 5.00 | < 5.00 | 7.19 | 6.88 | 5.14 | 5.27 | < 5.00 | < 5.00 | < 5.00 | 7.18 | 7.08 | 6.76 | < 5.00 | 7.19 | < 5.00 | 7.60 | < 5.00 | < 5.00 | < 5.00 | < 5.00 | pIC50 (SR): 7.58; pIC50 (SW684): < 5.00; pIC50 (D283 Med): 7.09; pIC50 (HT-1080): 7.21; pIC50 (SW1353): 7.07; pIC50 (SNU-16): 5.00; pIC50 (HT): < 5.00; pIC50 (SK-MEL-28): < 5.00; pIC50 (SCC-9): < 5.00; pIC50 (HT-1197): 6.87; pIC50 (BT20): < 5.00; pIC50 (A427): 6.84; pIC50 (ARH-77): 5.12; pIC50 (SK-N-AS): 5.08; pIC50 (RKO-AS45-1): 7.13; pIC50 (MOLT-3): 7.48; pIC50 (SW954): 5.08; pIC50 (SW900): < 5.00; pIC50 (PC-3): < 5.00
CC[C@@H]1CNC2(CC2)CN1C(=O)[C@@H]1C[C@@H](F)CN1C(=O)C1=C(C(C)C)N2C(=N[C@@](C)(c3ccc(Cl)nc3)[C@H]2c2ccc(Cl)c(F)c2)S1 [Compound A, [(5R,6S)-5-(4-Chloro-3-fluorophenyl)-6-(6-chloropyridin-3-yl)-6-methyl-3-(propan-2-yl)-5,6-dihydroimidazo[2,1-b][1,3]thiazol-2-yl][(2S,4R)-2-{[(6R)-6-ethyl-4,7-diazaspiro[2.5]oct-7-yl]carbonyl}-4-fluoropyrrolidin-1-yl]methanone] | < 4.40 | < 4.40 | 6.57 | 6.22 | < 4.40 | < 4.40 | < 4.40 | < 4.40 | < 4.40 | 6.29 | 6.18 | 5.97 | 4.49 | 6.18 | < 4.40 | 6.43 | < 4.40 | < 4.40 | < 4.40 | < 4.40 | pIC50 (SR): 6.59; pIC50 (SW684): < 4.40; pIC50 (D283 Med): 6.28; pIC50 (HT-1080): 6.55; pIC50 (SW1353): 5.77; pIC50 (SNU-16): 4.55; pIC50 (HT): < 4.40; pIC50 (SK-MEL-28): < 4.40; pIC50 (SCC-9): < 4.40; pIC50 (HT-1197): 6.63; pIC50 (BT20): < 4.40; pIC50 (A427): 5.78; pIC50 (ARH-77): < 4.40; pIC50 (SK-N-AS): < 4.40; pIC50 (RKO-AS45-1): 6.33; pIC50 (MOLT-3): 6.22; pIC50 (SW954): < 4.40; pIC50 (SW900): < 4.40; pIC50 (PC-3): < 4.40
